Test results taken from PMC4250310 (Bioorganic & medicinal chemistry letters, 2014).
≈ marks a conversion by molar mass, not a printed value.

Columns and labels:
[1] = ref our previous work; cited from earlier work
in vitro [2] = conditions: mouse, microsomes
in vitro [3] = conditions: plasma
PC12-G93A-YFP cell line = assay: cytotoxicity protection assay against mutant SOD1-induced cytotoxicity; assay type: cell-based; conditions: read-out: Potency (EC50)

O=C1CC(=O)N(CCc2ccccc2)C(=O)N1CCc1ccccc1 [Compound 1, 1,3-bis(2-phenylethyl)pyrimidine-2,4,6(1H,3H,5H)-trione]
maximum tolerated dose [1]: 100 mg/kg | half-life (in vitro [2]): 16 min | solubility (physchem): 31.3 µM (≈ 10.5 µg/mL) | half-life (in vitro [3]): 63.5 min | EC50 (PC12-G93A-YFP cell line): 1.68 µM
